Source: ChEMBL document CHEMBL1139426, “Design and synthesis of a metabolically stable and potent antitussive agent, a novel delta opioid receptor antagonist, TRK-851” (Bioorg Med Chem, 2008)
Calls of active or inactive are those of the source. The rule behind the calls is not given here.

Experiments:
Rattus norvegicus [1] = experiment: Antitussive activity in sc dosed Sprague-Dawley rat assessed as reduction of capsaicin-induced coughing for 3 mins administered 30 mins before capsaicin challenge relative to control; format: functional
[2] = Metabolic stability in human liver microsomes assessed as time course of compound elimination at 1 uM by HPLC; format: ADME, Microsome; details: read-out: Ke (converted)
Rattus norvegicus [3] = experiment: Antitussive activity in ip dosed Sprague-Dawley rat assessed as reduction of capsaicin-induced coughing for 3 mins administered 30 mins before capsaicin challenge relative to control; format: functional
Rattus norvegicus [4] = experiment: Antitussive activity in po dosed Sprague-Dawley rat assessed as inhibition of capsaicin-induced coughing for 3 mins administered 60 mins before capsaicin challenge relative to control; format: functional, organism-based
[5] = target: Delta-type opioid receptor (Mus musculus, UniProt P32300); experiment: Antagonist activity at delta opioid receptor in ddy mouse vas deferens assessed as inhibition of DPDPE-induced electrically-stimulated contraction; format: functional, tissue-based
Sequence of Delta-type opioid receptor (P32300 whole entry): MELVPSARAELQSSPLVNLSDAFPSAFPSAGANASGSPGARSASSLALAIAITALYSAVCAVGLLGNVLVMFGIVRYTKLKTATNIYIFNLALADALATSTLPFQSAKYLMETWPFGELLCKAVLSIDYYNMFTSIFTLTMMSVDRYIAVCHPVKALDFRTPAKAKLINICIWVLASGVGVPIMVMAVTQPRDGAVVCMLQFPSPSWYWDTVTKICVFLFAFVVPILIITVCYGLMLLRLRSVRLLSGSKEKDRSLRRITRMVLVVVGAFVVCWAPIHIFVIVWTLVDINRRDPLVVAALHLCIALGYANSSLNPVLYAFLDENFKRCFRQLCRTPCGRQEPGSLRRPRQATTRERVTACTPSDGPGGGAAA

[6] = target: Mu-type opioid receptor (Mus musculus) (UniProt P42866); experiment: Antagonist activity at mu opioid receptor in ddy mouse vas deferens assessed as inhibition of morphine-induced electrically-stimulated contraction at 10 nM pretreated for 20 mins; format: functional, tissue-based
Sequence of Mu-type opioid receptor (Mus musculus) (P42866 whole entry): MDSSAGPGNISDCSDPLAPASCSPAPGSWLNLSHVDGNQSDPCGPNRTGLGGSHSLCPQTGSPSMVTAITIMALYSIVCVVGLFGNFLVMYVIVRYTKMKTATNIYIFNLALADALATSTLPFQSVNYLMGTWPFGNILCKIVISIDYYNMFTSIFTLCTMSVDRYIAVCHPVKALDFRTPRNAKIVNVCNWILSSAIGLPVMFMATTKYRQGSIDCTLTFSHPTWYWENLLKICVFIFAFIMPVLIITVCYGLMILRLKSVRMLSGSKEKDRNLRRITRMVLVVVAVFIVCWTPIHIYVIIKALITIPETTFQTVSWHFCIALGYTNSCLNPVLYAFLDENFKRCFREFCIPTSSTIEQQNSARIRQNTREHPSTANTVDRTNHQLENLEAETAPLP

[7] = target: Kappa-type opioid receptor (Mus musculus) (UniProt P33534); experiment: Antagonist activity at kappa opioid receptor in ddy mouse vas deferens assessed as inhibition of U-50,488H-induced electrically-stimulated contraction at 10 nM pretreated for 20 mins; format: functional, tissue-based
Sequence of Kappa-type opioid receptor (Mus musculus) (P33534 whole entry): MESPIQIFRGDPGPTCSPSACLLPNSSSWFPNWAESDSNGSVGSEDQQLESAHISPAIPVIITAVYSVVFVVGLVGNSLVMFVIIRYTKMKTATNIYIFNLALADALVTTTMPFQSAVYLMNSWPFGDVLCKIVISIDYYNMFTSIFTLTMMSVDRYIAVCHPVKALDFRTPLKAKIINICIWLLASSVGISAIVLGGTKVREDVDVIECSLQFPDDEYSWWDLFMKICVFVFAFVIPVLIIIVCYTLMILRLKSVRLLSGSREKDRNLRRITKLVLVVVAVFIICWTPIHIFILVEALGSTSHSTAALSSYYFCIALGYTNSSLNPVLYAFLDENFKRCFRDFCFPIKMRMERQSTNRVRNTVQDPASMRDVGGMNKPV

[8] = target: Delta-type opioid receptor (Mus musculus) (UniProt P32300); experiment: Antagonist activity at delta opioid receptor in ddy mouse vas deferens assessed as inhibition of DPDPE-induced electrically-stimulated contraction at 10 nM pretreated for 20 mins; format: functional, tissue-based
Sequence of Delta-type opioid receptor (Mus musculus) (P32300 whole entry): as the sequence (P32300 whole entry) above

[9] = target: Delta-type opioid receptor (Mus musculus) (UniProt P32300); experiment: Antagonist activity at delta opioid receptor in ddy mouse vas deferens assessed as ratio of DPDPE concentration that elicit equal response in absence and presence of compound; format: functional
[10] = target: Kappa-type opioid receptor (Mus musculus, UniProt P33534); experiment: Antagonist activity at kappa opioid receptor in ddy mouse vas deferens assessed as inhibition of U-50,488H-induced electrically-stimulated contraction; format: functional, tissue-based; details: read-out: pA2 (converted)
Sequence of Kappa-type opioid receptor (P33534 whole entry): as the sequence (P33534 whole entry) above

Mus musculus [11] = organism: Mus musculus; experiment: Selectivity for delta opioid receptor over kappa opioid receptor in ddy mouse vas deferens; format: tissue-based
[12] = target: Kappa-type opioid receptor (Mus musculus) (UniProt P33534); experiment: Antagonist activity at kappa opioid receptor in ddy mouse vas deferens assessed as ratio of U-50,488H concentration that elicit equal response in absence and presence of compound; format: functional
Mus musculus [13] = organism: Mus musculus; experiment: Selectivity for delta opioid receptor over mu opioid receptor in ddy mouse vas deferens; format: tissue-based
[14] = target: Mu-type opioid receptor (Mus musculus) (UniProt P42866); experiment: Antagonist activity at mu opioid receptor in ddy mouse vas deferens assessed as ratio of morphine concentration that elicit equal response in absence and presence of compound; format: functional
Rattus norvegicus [15] = experiment: Antitussive activity in po dosed rat assessed as reduction of coughing; format: functional

`Oc1ccc2c3c1O[C@H]1c4c(c5cc(Br)cc6c5n4CCC6)C[C@@]4(O)[C@@H](C2)N(CC2CC2)CC[C@]314` gave an ED50 (Rattus norvegicus [1]) of 5.05 µg/kg and a k el at 1 µM [2] of 0.000252 s⁻¹.

For `Oc1ccc2c3c1O[C@H]1c4c(c5ccc(Br)c6c5n4CCC6)C[C@@]4(O)[C@@H](C2)N(CC2CC2)CC[C@]314`, the ED50 (Rattus norvegicus [1]) was 27.4 µg/kg and the k el at 1 µM [2] was 0.000363 s⁻¹.

Compound `COc1ccc2c3c1O[C@H]1c4c(c5c(OC)ccc6c5n4CCC6)C[C@@]4(O)[C@@H](C2)N(CC2CC2)CC[C@]314` has a k el at 1 µM [2] of 0.00333 s⁻¹.

Work on `Oc1ccc2c3c1O[C@H]1c4c(c5cc(OC(F)(F)F)cc6c5n4CCC6)C[C@@]4(O)[C@@H](C2)N(CC2CC2)CC[C@]314` yielded an ED50 (Rattus norvegicus [1]) of over 1000 µg/kg and a k el at 1 µM [2] of 0.000152 s⁻¹.

`Oc1ccc2c3c1O[C@H]1c4[nH]c5ccccc5c4C[C@@]4(O)[C@@H](C2)N(CC2CC2)CC[C@]314` [NALTRINDOLE] gave an ED50 (Rattus norvegicus [3]) of 104 µg/kg.

With `Oc1ccc2c3c1O[C@H]1c4c(c5cc(Cl)cc6c5n4CCC6)C[C@@]4(O)[C@@H](C2)N(CC2CC2)CC[C@]314` the k el at 1 µM [2] was 0.000295 s⁻¹ and the ED50 (Rattus norvegicus [3]) was 78.4 µg/kg.

`Oc1ccc2c3c1O[C@H]1c4c(c5ccc(Cl)c6c5n4CCC6)C[C@@]4(O)[C@@H](C2)N(CC2CC2)CC[C@]314` showed an ED50 (Rattus norvegicus [1]) of 13.8 µg/kg and a k el at 1 µM [2] of 0.000483 s⁻¹.

Compound `Oc1ccc2c3c1O[C@H]1c4c(c5cc(C(F)(F)F)cc6c5n4CCC6)C[C@@]4(O)[C@@H](C2)N(CC2CC2)CC[C@]314` has an ED50 (Rattus norvegicus [1]) of over 1000 µg/kg and a k el at 1 µM [2] of 0.00027 s⁻¹.

With `COc1ccc2c3c1O[C@H]1c4c(c5cc(F)cc6c5n4CCC6)C[C@@]4(O)C(C2)N(CC2CC2)CC[C@]314` the k el at 1 µM [2] was 0.00647 s⁻¹ and the ED50 (Rattus norvegicus [3]) was 4.73 µg/kg.

`COc1ccc2c3c1O[C@H]1c4c(c5cc(Br)cc6c5n4CCC6)C[C@@]4(O)[C@@H](C2)N(CC2CC2)CC[C@]314` showed a k el at 1 µM [2] of 0.0044 s⁻¹.

Work on `Oc1ccc2c3c1O[C@H]1c4c(c5c(Br)ccc6c5n4CCC6)C[C@@]4(O)[C@@H](C2)N(CC2CC2)CC[C@]314` yielded an ED50 (Rattus norvegicus [1]) of 94.6 µg/kg and a k el at 1 µM [2] of 0.000618 s⁻¹.

`CC1(C)CCn2c3c(c4cccc1c42)C[C@@]1(O)[C@H]2Cc4ccc(O)c5c4[C@@]1(CCN2CC1CC1)[C@H]3O5` gave a k el at 1 µM [2] of 0.00126 s⁻¹.

With `COc1ccc2c3c1O[C@H]1c4c(c5c(C(F)(F)F)ccc6c5n4CCC6)C[C@@]4(O)[C@@H](C2)N(CC2CC2)CC[C@]314` the k el at 1 µM [2] was 0.00228 s⁻¹.

`Oc1ccc2c3c1O[C@H]1c4c(c5c(C(F)(F)F)ccc6c5n4CCC6)C[C@@]4(O)[C@@H](C2)N(CC2CC2)CC[C@]314` gave an ED50 (Rattus norvegicus [1]) of 0.355 µg/kg and a k el at 1 µM [2] of 0.000278 s⁻¹.

With `Oc1ccc2c3c1O[C@H]1c4c(c5cc(F)cc6c5n4CCC6)C[C@@]4(O)[C@@H](C2)N(CC2CC2)CC[C@]314` the Activity (Rattus norvegicus [4]) was “Dose-dependent effect”, the IC50 [5] was 8800 nM and the Kb ([5]; read-out: pA2 (converted)) was 1.45 nM. For the same compound, the ED50 (Rattus norvegicus [1]) was 1.7 µg/kg, the Activity [6] was “inactive” and the Activity [7] was “inactive”. For the same compound, the Activity [8] was “inactive”, the Ratio [9] was 7.87 and the Kb [10] was 331 nM. The k el at 1 µM [2] was 0.00029 s⁻¹, the Selectivity ratio (Mus musculus [11]) was over 100 and the Ratio [12] was 1.03. It also gave a Selectivity ratio (Mus musculus [13]) of over 100 and a Ratio [14] of 0.98.

For `COc1ccc2c3c1O[C@H]1c4c(c5cccc6c5n4CCC6)C[C@@]4(O)[C@@H](C2)N(CC2CC2)CC[C@]314.CS(=O)(=O)O`, the k el at 1 µM [2] was 0.00568 s⁻¹, the ED50 (Rattus norvegicus [15]) was 6.4 µg/kg and the ED50 (Rattus norvegicus [3]) was 2.07 µg/kg.

`Oc1ccc2c3c1O[C@H]1c4c(c5cccc6c5n4CCO6)C[C@@]4(O)[C@@H](C2)N(CC2CC2)CC[C@]314` showed an ED50 (Rattus norvegicus [1]) of 14 µg/kg and a k el at 1 µM [2] of 0.000557 s⁻¹.

Compound `COc1ccc2c3c1c1c(n3CCC2)[C@@H]2Oc3c(O)ccc4c3[C@@]23CCN(CC2CC2)[C@H](C4)[C@]3(O)C1` has an ED50 (Rattus norvegicus [1]) of 8.67 µg/kg and a k el at 1 µM [2] of 0.000475 s⁻¹.

Work on `COc1ccc2c3c1O[C@H]1c4c(c5c(C)ccc6c5n4CCC6)C[C@@]4(O)[C@@H](C2)N(CC2CC2)CC[C@]314` yielded a k el at 1 µM [2] of 0.00595 s⁻¹.

Compound `Cc1ccc2c3c1c1c(n3CCC2)[C@@H]2Oc3c(O)ccc4c3[C@@]23CCN(CC2CC2)[C@H](C4)[C@]3(O)C1` has a k el at 1 µM [2] of 0.000565 s⁻¹.

In the case of `COc1cc2c3c(c1)c1c(n3CCC2)[C@@H]2Oc3c(O)ccc4c3[C@@]23CCN(CC2CC2)[C@H](C4)[C@]3(O)C1`, the ED50 (Rattus norvegicus [1]) is reported as 2 µg/kg and the k el at 1 µM [2] is reported as 0.000552 s⁻¹.

Compound `COc1ccc2c3c1O[C@H]1c4c(c5cccc6c5n4CCC6(C)C)C[C@@]4(O)[C@@H](C2)N(CC2CC2)CC[C@]314` has an ED50 (Rattus norvegicus [1]) of 12.8 µg/kg and a k el at 1 µM [2] of 0.00103 s⁻¹.

For `Oc1ccc2c3c1O[C@H]1c4c(c5cccc6c5n4CCC6)C[C@@]4(O)[C@@H](C2)N(CC2CC2)CC[C@]314`, the ED50 (Rattus norvegicus [1]) was 0.2 µg/kg and the k el at 1 µM [2] was 0.000415 s⁻¹.

For `COc1ccc2c3c1O[C@H]1c4c(c5cccc6c5n4CCO6)C[C@@]4(O)[C@@H](C2)N(CC2CC2)CC[C@]314`, the k el at 1 µM [2] was 0.00105 s⁻¹.

Work on `Oc1ccc2c3c1O[C@H]1c4c(c5c(Cl)ccc6c5n4CCC6)C[C@@]4(O)[C@@H](C2)N(CC2CC2)CC[C@]314` yielded an ED50 (Rattus norvegicus [1]) of 3.5 µg/kg and a k el at 1 µM [2] of 0.00045 s⁻¹.

Work on `COc1ccc2c3c(n4c2c1CCC4)[C@@H]1Oc2c(O)ccc4c2[C@@]12CCN(CC1CC1)[C@H](C4)[C@]2(O)C3` yielded an ED50 (Rattus norvegicus [1]) of 54.2 µg/kg and a k el at 1 µM [2] of 0.000437 s⁻¹.
